Results on 16 compounds are retold here after US10301323B2, “Histone deacetylase inhibitors” (BIOMARIN PHARMACEUTICAL INC., priority 2011, dated 2019).

Each structure is given as a SMILES string. Like-named read-outs stand apart in the source and are kept apart here.

One series has as its system HCT116 cells. Kind of series: Cell proliferation assay. The format is cell-based. To be noted: Homo sapiens, HCT-116, 72 h, read-out: Hct-116 (anti-proliferation IC50). The method, then: HCT116 cells (5000 cells/well) in 80 μL McCoy's 5 A medium containing 10% v/v FBS, 1% v/v penicillin/streptomycin and 1% v/v L-glutamine were incubated in 96-well plates with compounds at various concentrations for 72 h at 37° C. in a 5% CO2 atmosphere. The compound dilutions were made in 100% DMSO followed by parallel dilutions in media. The final concentration of DMSO in each well was 0.05%. After 72 h, 20 μL of Cell titer 96 aqueous one solution (Promega Corporation, Madison, Wis.) were added to the cells and the plate was incubated at 37° C. for another 4 h. The absorbance at 490 nm was then recorded on a 96-well plate reader (Spectramax M2, Molecular Devices, Sunnyvale, Calif.). Data analysis was performed in Microsoft Excel (Microsoft Corp, Redmond, Wash.).

In the next series the test system is C57BL/6J male mice. Kind of series: Long term memory for object recognition. The format is in vivo. To be noted: 3, 10, 30 mg/kg subcutaneous; object recognition memory task. As for the experimental part:
C57BL/6J male mice were handled 1-2 min for 5 days and were habituated to the experimental apparatus 5 min a day for 4 consecutive days in the absence of objects. […] 24-h later mice were tested for memory retention (5 min) using the object recognition memory task (ORM), in which a familiar object was replaced with a novel one. All training and testing trials were videotaped and analyzed by individuals blind to the treatment condition and the genotype of subjects. A mouse was scored as exploring an object when its head was oriented toward the object within a distance of 1 cm or when the nose was touching the object. The relative exploration time was recorded and expressed by a discrimination index [DI=(tnovel−tfamiliar)/(tnovel+tfamiliar)×100].

Series [1] relates to GM 15850 (lymphoblastoid cells line) cells. Kind of series: In-cell deacetylase inhibition assay (DAC assay). The format is cell-based. Conditions: Homo sapiens, GM15850, GM 15850 cells, 4 h incubation. The method, then: Compound dilutions were made in 100% DMSO followed by parallel dilution in media with 2% DMSO. 10 μl of the compound dilutions were added to the cells to achieve the desired concentrations. The final concentration of DMSO in each well was 0.2%. The cells were incubated for 4 h at 37° C. with 5% CO2. After incubation, the cells were centrifuged down and the supernatant was removed. […] The reaction was stopped after 30 min incubation by addition of 50 μL developer (6 mg/mL trypsin in HDAC assay buffer). The reaction was allowed to develop for 30 min at room temperature and the fluorescence signal was detected using a fluorometer (Spectramax M2, Molecular Devices, Sunnyvale, Calif.) with excitation and emission wavelengths of 360 nm and 470 nm respectively. The data was fitted to a sigmoidal dose response equation with variable slope in GraphPad Prism 5.0 (GraphPad Software, La Jolla, Calif.) to determine IC50. Bottom and top of the curve were fixed to the average fluorescence response of control wells with no cells and cells but no compound respectively.

Series [2] is described as follows: Compound stability in hepatocytes. Conditions: human hepatocytes, 5 μM compound.
Experimental: To assess the stability and metabolism of RGFP compounds in hepatocytes. This assay was designed to evaluate the metabolism of RGFP compounds, following their incubation with human, monkey, dog and rat hepatocytes by monitoring either parent drug disappearance or metabolite appearance using HPLC.
Procedure: • Turn on the water-bath heater to 37° C. • Take out the KHB buffer and make sure it is at room temp before use • Prepare 2.5 mM concentration of RGFP compound in DMSO stock • Add 10 μL of above DMSO stock to 2490 μL KHB buffer; final concentration of RGFP compound will be 10 μM • Pre-warm 45 ml InVitro HT Medium to 37° C. in a sterile 50 ml conical tube • Add 1.0 mL Torpedo Antibiotic Mix per 45 mL InVitro HT medium • Transfer 13 mL of warm HT medium with Antibiotic Mix into a 15 mL conical tube. • Carefully remove the hepatocyte vials from liquid nitrogen (liquid phase). • Immediately immerse the vial into a 37° C. water bath. Shake gently until the ice melts entirely. […] Loosen the cell pellet by gently swirling the centrifuge tube • Transfer 100 μL of above solution to a different tube and add 900 μL of KHB buffer to count the cells • Determine the total cell count and the number of viable cells using the Trypan Blue exclusion method • Once you obtain the cell count, multiply the number by 10 (attributing to the dilution factor) • Now add required volume of KHB buffer to the tube containing hepatocytes such that the final count will be 2 million cells/mL • Dispense 50 μL of 2 million cells/ml to a 96 well plate and then add 50 μl of DMSO stock to respective wells (such that, the concentration of RGFP compounds is 5 μM and number of cells are 100000 in each well) • Place the plates on a shaker in a 37° C. incubator with 5% CO2 • Separate plates for each time point are advisable (Time points: 0 h, 1 h, 2 h, and 6 h) • After each time point, add 100 μL of quenching solution. • Quenching solution is an acetonitrile solution containing RGFP531 (10 μM) internal standard, 0.1% formic acid and phenylglyoxol (400 μM). The formic acid and phenylglyoxal is used for the identification and quantification of OPD as mentioned above. • Pipette up and down a few times to ensure a complete stop of reaction • Transfer all the solution into a 1.5 ml tube, vortex thoroughly, and centrifuge at 14000 RPM at 4° C. for 5 minutes to precipitate cell debris
Transfer the 150 μL of supernatant to vials for analysis using HPLC
A short description of series [3]: Brain penetration studies. Conditions: Table 4; mice dosed s.c. at 5 mg/kg or 50 mg/kg, or i.v. at 5 mg/kg; Cmax(brain)/Cmax(plasma).
Experimental: Test compounds were prepared at either 0.5 mg/ml or 5 mg/ml in 30% hydroxypropyl-β-cyclodextrin, 100 mM sodium acetate pH 5.5, 5% DMSO. C57/BL6/J mice were dosed s.c. at 5 mg/kg or 50 mg/kg, or i.v. at 5 mg/kg. Animals were euthanized at pre-dose, 5, 15, 30 min, 1, 2 and 4 hours post-dose and plasma and brain obtained. Three animals per dose per time points were used. The levels of compound in the plasma and brain were determined by standard LC/MS/MS methods. Brain/plasma ratio (BPR) was calculated as the ratio of the Cmax(brain)/Cmax(plasma).
For series [4], the system named is frataxin (FXN) mRNA in primary lymphocytes from Friedreich's ataxia patient donors. Nature of the series: Effect of HDAC inhibitors on frataxin (FXN) mRNA expression. The format is cell-based, human. Conditions: Table 4, concentration required for a 2-fold increase in FXN mRNA, 48 hours. The method, then: Blood is collected from Friedreich's ataxia patient donors into tubes containing the anti-coagulant EDTA. Primary lymphocytes are isolated using Lymphocyte Separation Medium (MP Biomedicals, Solon, Ohio) following the manufacturer's instructions and including a few modifications made by Repligen. After a final wash in Phosphate Buffered Saline (PBS), the cells are distributed into a 6-well cell culture plate in cell growth medium. The test HDAC inhibitor compound is added to cells in a dose escalating manner (usually concentrations range from 1 to 10 μM) and 0.1% DMSO is added to one well of cells as a no treatment control. Cells are incubated for 48 hours at 37° C. in a CO2 incubator; cell counts are taken using a Countess automated cell counter (Invitrogen, Carlsbad, Calif.). Equivalent numbers of cells for all treatment conditions are pelleted by centrifugation and resuspended in cell lysis buffer. Total RNA is isolated from approximately 1×10^6 primary lymphocytes using a RNeasy Mini Kit (Qiagen, Valencia, Calif.), following the manufacturer's instructions and including an optional on-column DNAse digestion step. […] The RNA yield and concentration is determined using a Nanodrop spectrophotometer (Thermo Fisher Scientific, Waltham, Mass.) and depending on the RNA concentration, one of two protocols is used to measure frataxin (FXN) transcript levels. […] In both methods each RNA sample is analyzed in triplicate (preferably) or duplicate (minimally) using a one-step qRT-PCR master mix that contains all the components necessary for cDNA synthesis and PCR amplification in a single, continuous reaction. […] The amount of FXN (or GAPDH) in the sample is determined as the relative quantity to the calibrator where the calibrator sample is assigned an arbitrary quantity of 1. The following equation is used: Relative quantity to the calibrator=2^−ΔCt where ΔCt=(Ct_gene)unknown−(Ct_gene)calibrator, gene is either FXN or GAPDH, calibrator is a DMSO control sample, and unknown is a HDACi treated sample. The relative quantity of FXN is normalized to cell number and RNA input. […]

With `Cn1cnc(/C=C/C(=O)Nc2ccccc2N)c1` [A12], the IC50 in the series with HCT116 cells is above 20 µM. With `Nc1ccccc1NC(=O)/C=C/c1cnn(CCOc2cc(F)cc(Cl)c2)c1` [B5, (E)-N-(2-aminophenyl)-3-(1-(2-(3-chloro-5-fluorophenoxy)ethyl)-1H-pyrazol-4-yl)acrylamide], the IC50 in the series with HCT116 cells was in the range of 10 to 20 µM.

For the compound `Nc1cc(F)ccc1NC(=O)/C=C/c1cnn(C/C=C/c2ccccc2)c1` [D2, (E)-N-(2-amino-4-fluorophenyl)-3-(1-cinnamyl-1H-pyrazol-4-yl)acrylamide], in the series on C57BL/6J male mice, the “dose dependence of the effect on long-term memory” value was “no effect of dose”. For the compound `Nc1ccccc1NC(=O)/C=C/c1csc(C/C=C/c2ccccc2)n1` [E2, (E)-N-(2-aminophenyl)-3-(2-cinnamylthiazol-4-yl)acrylamide], the IC50 in series [1] (read-out: 850 DAC (in-cell deacetylase inhibition IC50)) is 10 to 20 µM; in the series on HCT116 cells it was above 20 µM.

For the compound `Nc1ccccc1NC(=O)c1ccc(C=C2CCN(Cc3cccnc3)CC2)c(Cl)c1` [F7], in series [1] (Table 4, read-out: DAC IC50), the IC50 was in the range of 5 to 10 µM. With `CN1C2CCC1CC(=Cc1ccc(C(=O)Nc3ccccc3N)cc1Cl)C2` [F8], in series [1] (Table 4, read-out: DAC IC50), the IC50 is below 1 µM. Take `Nc1ccccc1NC(=O)c1ccc(C=C2COC2)cc1F` [F9]: the IC50 in series [1] (Table 4, read-out: DAC IC50) was below 1 µM. Further, the “% left 6h Hum” value in series [2] is on record as “IA (IA<10%)”.

As to `Nc1ccccc1NC(=O)c1ccc(C=C2CN(CC3CC3)C2)c(Cl)c1` [F10], in series [1] (Table 4, read-out: DAC IC50), the IC50 fell in the range of 5 to 10 µM. Besides, the BPR result in series [3] is “A (A is greater than 1)”. Consider `Nc1ccccc1NC(=O)c1ccc(C=C2COC2)c(Cl)c1` [F11], for which, in series [1] (Table 4, read-out: DAC IC50), the IC50 is below 1 µM. The BPR result in series [3] is reported as “A (A is greater than 1)”. With `Nc1ccccc1NC(=O)c1ccc(C=C2CN(CC3CC3)C2)cc1` [F12], the IC50 in series [1] (Table 4, read-out: DAC IC50) is below 1 µM. Besides, the “Fxn >2X (uM)” value in series [4] is listed as “A (A if less than 5 μM)”. For the same compound, the BPR entry in series [3] is on record as “A (A is greater than 1)”. The “% left 6h Hum” value in series [2] is “A (50%<A)”. As for `Nc1ccccc1NC(=O)c1ccc(C=C2CCN(CC3CC3)CC2)cc1` [F13], the BPR result in series [3] is “A (A is greater than 1)”. In the case of `CC(C)(C)CN1CCC(=Cc2ccc(C(=O)Nc3ccccc3N)cc2)CC1` [F14], the IC50 in series [1] (Table 4, read-out: DAC IC50) was 1 to 5 µM. For the same compound, in series [4], the “Fxn >2X (uM)” value is recorded as “A (A if less than 5 μM)”. Moreover, the BPR result in series [3] is on record as “A (A is greater than 1)”. Regarding `CC(C)(O)CN1CCC(=Cc2ccc(C(=O)Nc3ccccc3N)cc2)CC1` [F15], the IC50 in series [1] (Table 4, read-out: DAC IC50) fell in the range of 1 to 5 µM. Further, the “Fxn >2X (uM)” value in series [4] is given as “A (A if less than 5 μM)”. Besides, the BPR result in series [3] was “A (A is greater than 1)”. Also, the “% left 6h Hum” value in series [2] is given as “A (50%<A)”. Take `CC(C)(O)CN1CC(=Cc2ccc(C(=O)Nc3ccccc3N)cc2)C1` [F19]: the “% left 6h Hum” value in series [2] is listed as “A (50%<A)”. Regarding `Nc1cc(F)ccc1NC(=O)c1ccc(C=C2CN(CC3CC3)C2)cc1` [F20], the “% left 6h Hum” value in series [2] is recorded as “A (50%<A)”. Regarding `Cc1ccc(C(=O)NCCCCCC(=O)Nc2ccc(F)cc2N)cc1` [RGFP 136, reference compound], the “dose dependence of the effect on long-term memory” value in the series on C57BL/6J male mice is given as “Dose dependent effects”.
